Measurements from ChEMBL document CHEMBL3871287, “Discovery of SMP-304, a novel benzylpiperidine derivative with serotonin transporter inhibitory activity and 5-HT1A weak partial agonistic activity showing the antidepressant-like effect” (Bioorg Med Chem, 2017).
Active and inactive are the calls of the source. The rule behind the calls is not given here.

Columns and labels:
[1] = molecular target: T1, 5-hydroxytryptamine receptor 1A (Homo sapiens, UniProt P08908); experiment: Displacement of [3H]-8-OH-DPAT from human 5-HT1A receptor expressed in CHOK1 cells after 30 mins by liquid scintillation counting analysis; assay type: cell-based, CHO-K1
T1 sequence (P08908 whole entry): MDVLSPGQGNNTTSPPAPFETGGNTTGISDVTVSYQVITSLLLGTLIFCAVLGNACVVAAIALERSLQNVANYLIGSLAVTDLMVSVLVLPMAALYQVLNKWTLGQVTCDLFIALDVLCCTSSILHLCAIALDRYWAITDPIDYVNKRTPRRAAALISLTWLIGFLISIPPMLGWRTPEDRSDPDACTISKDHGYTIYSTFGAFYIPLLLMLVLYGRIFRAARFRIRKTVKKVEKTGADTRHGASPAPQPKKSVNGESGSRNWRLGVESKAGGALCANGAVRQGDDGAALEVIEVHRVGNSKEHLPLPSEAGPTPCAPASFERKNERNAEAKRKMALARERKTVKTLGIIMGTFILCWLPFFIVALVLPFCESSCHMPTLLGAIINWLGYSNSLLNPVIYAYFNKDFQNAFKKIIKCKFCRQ

[2] = molecular target: T2, Sodium-dependent serotonin transporter (Homo sapiens, UniProt P31645); experiment: Inhibition of human SERT expressed in CHO cell membranes assessed as reduction in [3H]serotonin uptake preincubated for 10 mins followed by [3H]serotonin addition measured after 20 mins by liquid scintillation counting method; assay type: cell-based
T2 sequence (P31645 whole entry): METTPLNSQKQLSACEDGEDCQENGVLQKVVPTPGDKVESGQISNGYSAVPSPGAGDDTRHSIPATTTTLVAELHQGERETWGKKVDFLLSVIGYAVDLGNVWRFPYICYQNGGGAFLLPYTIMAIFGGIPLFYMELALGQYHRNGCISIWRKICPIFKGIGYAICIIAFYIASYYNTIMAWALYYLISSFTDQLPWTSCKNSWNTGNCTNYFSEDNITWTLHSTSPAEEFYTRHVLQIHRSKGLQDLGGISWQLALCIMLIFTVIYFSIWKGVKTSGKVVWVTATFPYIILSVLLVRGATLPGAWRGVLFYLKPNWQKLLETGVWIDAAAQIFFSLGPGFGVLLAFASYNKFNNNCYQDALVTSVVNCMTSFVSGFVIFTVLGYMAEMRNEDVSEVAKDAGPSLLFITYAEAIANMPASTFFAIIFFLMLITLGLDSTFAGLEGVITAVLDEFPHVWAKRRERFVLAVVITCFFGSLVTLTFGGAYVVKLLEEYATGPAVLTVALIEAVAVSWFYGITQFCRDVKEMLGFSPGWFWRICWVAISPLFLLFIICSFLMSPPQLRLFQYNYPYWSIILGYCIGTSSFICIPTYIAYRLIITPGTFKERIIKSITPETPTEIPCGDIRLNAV

Cytochrome P450 2D6 = Cytochrome P450 2D6 (Homo sapiens, UniProt P10635); experiment: Inhibition of CYP2D6 in human liver microsomes assessed as reduction in formation of 1'-hydroxy-bufuralol from bufuralol preincubated with enzyme followed by substrate and beta-NADPH addition measured after 10 mins by LC-MS/MS analysis; assay type: ADME
Sequence of Cytochrome P450 2D6 (P10635 whole entry): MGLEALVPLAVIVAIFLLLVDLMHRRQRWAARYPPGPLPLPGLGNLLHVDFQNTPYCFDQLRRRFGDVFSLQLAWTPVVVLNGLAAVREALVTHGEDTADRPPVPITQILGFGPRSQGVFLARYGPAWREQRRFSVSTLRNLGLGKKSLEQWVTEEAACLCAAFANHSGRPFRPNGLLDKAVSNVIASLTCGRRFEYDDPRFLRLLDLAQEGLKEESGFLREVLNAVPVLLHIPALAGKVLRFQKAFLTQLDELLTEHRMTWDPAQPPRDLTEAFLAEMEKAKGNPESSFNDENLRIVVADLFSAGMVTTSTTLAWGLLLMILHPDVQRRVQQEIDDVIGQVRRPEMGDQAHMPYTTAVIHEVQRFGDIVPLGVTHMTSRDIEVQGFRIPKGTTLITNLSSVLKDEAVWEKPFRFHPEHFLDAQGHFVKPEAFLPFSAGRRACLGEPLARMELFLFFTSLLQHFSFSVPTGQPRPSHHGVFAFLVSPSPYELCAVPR

[3] = molecular target: T2, Sodium-dependent serotonin transporter; experiment: Displacement of [3H]citalopram from human SERT expressed in HEK293 cell membranes after 1 hr by liquid scintillation counting method; assay type: cell-based
HEK293 = experiment: Selectivity ratio of Ki for human SERT expressed in HEK293 cell membranes to Ki for human 5-HT1A expressed in CHO-K1 cell membranes; assay type: cell-based
[4] = Drug uptake in Wistar rat brain at 3 mg/kg, po administered 26 and 2 hrs prior to testing by HPLC/MS analysis; assay type: ADME, organism-based; conditions: in vivo
[5] = Antidepressant-like activity in Wistar rat assessed as decrease in immobility time at 1 and 3 mg/kg, po administered 30 mins post start of training session for 2 days measured 2 hrs post last dose by forced swimming test; assay type: functional, organism-based
[6] = Drug uptake in Wistar rat brain at 1 mg/kg, po administered 26 and 2 hrs prior to testing by HPLC/MS analysis; assay type: ADME, organism-based; conditions: in vivo
Rattus norvegicus [7] = experiment: Toxicity in Wistar rat assessed as increase in spontaneous locomotor activity at 1 and 3 mg/kg, po administered 26 and 2 hrs prior to testing measured for 30 mins; assay type: organism-based; conditions: in vivo
Rattus norvegicus [8] = experiment: Toxicity in Wistar rat assessed as increase in spontaneous locomotor activity at 3 and 10 mg/kg, po administered 26 and 2 hrs prior to testing measured for 30 mins; assay type: organism-based; conditions: in vivo, 0.5 h

SMILES | Ki [1] [nM] | Ki [2] [nM] | also measured
CCOc1ccc(Br)c(CC2CCN(CCc3cc4c(cc3Cl)OCCO4)CC2)c1 | 23.4 | 18.7 | IC50 (Cytochrome P450 2D6): 1400 nM
COc1ccc(Br)c(CC2CCN(CCc3ccccc3)CC2)c1 | 2.72 | 66.4 | Ki [3]: 66.4 nM; Ratio Ki (HEK293): > 20
COc1ccc(Br)c(CC2CCN(CCc3cc4c(cc3Cl)OCCO4)CC2)c1 | 6.46 | 12.4 | Ratio Ki (HEK293): < 2; IC50 (Cytochrome P450 2D6): < 400 nM
COc1ccc(Br)c(CC2CCN(CCc3cccc4ccccc34)CC2)c1 | 4.81 | 38.9 | –
COc1ccc(Br)c(CC2CCN(C3CCN(c4ccc(OC)c(OC)c4)CC3)CC2)c1 | – | – | IC50 [1]: < 10 nM
COc1cccc(CC2CCN(CCc3ccccc3)CC2)c1 | 29.3 | – | Ki [3]: 212 nM
CC(C)Oc1ccc(Br)c(CC2CCN(CCc3cc4c(cc3Cl)OCCO4)CC2)c1 | 15.9 | 13.9 | IC50 (Cytochrome P450 2D6): 1500 nM
COCCOc1ccc(Br)c(CC2CCN(CCc3cc4c(cc3Cl)OCCO4)CC2)c1.Cl | – | 32.7 | IC50 [2]: 306 nM; Drug uptake [4]: 30.3 nmol/kg; Activity [5]: Active; Drug uptake [6]: 6.74 nmol/kg; IC50 (Cytochrome P450 2D6): 3000 nM; Activity (Rattus norvegicus [7]): Non-Toxic
COc1ccc(F)c(CC2CCN(C3CCN(c4ccc(OC)c(OC)c4)CC3)CC2)c1 | – | – | Ki [3]: < 100 nM
Fc1ccc([C@@H]2CCNC[C@H]2COc2ccc3c(c2)OCO3)cc1 [PAROXETINE] | – | – | Activity (Rattus norvegicus [8]): Non-Toxic
COc1ccc(Cl)c(CC2CCN(CCc3ccccc3)CC2)c1 | 2.27 | – | Ki [3]: 102 nM
COc1ccc(F)c(CC2CCN(CCc3ccccc3)CC2)c1 | 6.04 | – | Ki [3]: 274 nM

The remaining compounds from weak to strong by Ki [1], led by results:

Ki [1] [nM] | Ki [2] [nM] | SMILES | also measured
4.08 | 62.4 | COc1ccc(Br)c(CC2CCN(CCc3ccccc3Cl)CC2)c1 | –
3.03 | 37.6 | COc1ccc(Br)c(CC2CCN(CCc3ccccc3OC)CC2)c1 | –
2.93 | 42.6 | COc1ccc(Br)c(CC2CCN(CCc3cccc(Cl)c3)CC2)c1 | –
2.12 | 25.6 | COc1ccc(Br)c(CC2CCN(CCc3cccc4c3OCCO4)CC2)c1 | –
1.96 | 28 | COc1ccc(Br)c(CC2CCN(CCc3cc(OC)c(OC)cc3Cl)CC2)c1 | –
1.56 | 26.9 | COc1ccc(Br)c(CC2CCN(CCc3ccc(OC)c(OC)c3)CC2)c1 | –
1.4 | 65.3 | COc1ccc(Br)c(CC2CCN(CCc3ccc(C)cc3)CC2)c1 | –
1.34 | 46.2 | COc1ccc(Br)c(CC2CCN(CCc3ccc(Cl)cc3)CC2)c1 | –
1.12 | 30.5 | COc1ccc(CCN2CCC(Cc3cc(OC)ccc3Br)CC2)c(Cl)c1 | –
1.04 | 51.2 | COc1ccc(Br)c(CC2CCN(CCc3ccc(F)cc3)CC2)c1 | –
1.04 | 18.9 | COc1ccc(Br)c(CC2CCN(CCc3ccc(OC)c(Cl)c3)CC2)c1 | –
0.89 | 25.6 | COc1ccc(Br)c(CC2CCN(CCc3ccc4ccccc4c3)CC2)c1 | –
0.82 | 37.5 | COc1cccc(CCN2CCC(Cc3cc(OC)ccc3Br)CC2)c1 | –
0.81 | 37.5 | COc1ccc(CCN2CCC(Cc3cc(OC)ccc3Br)CC2)cc1 | –
0.36 | 14 | COc1ccc(Br)c(CC2CCN(CCc3ccc4c(c3)OCCO4)CC2)c1 | –
